Experimental data from ChEMBL document CHEMBL4715697, “Synthesis and biological activity of benzamide DNA minor groove binders” (2016).

Key:
Format in all cases: functional
[1] = system: NCI-H522; test: Growth inhibition of human NCI-H522 cells assessed as cell growth at 0.1 uM incubated for 48 hrs by sulforhodamine B assay relative to control; conditions: read-out: Activity
[2] = system: ACHN; test: Growth inhibition of human ACHN cells assessed as cell growth at 1 uM incubated for 48 hrs by sulforhodamine B assay relative to control; conditions: read-out: Activity
[3] = system: UACC-257; test: Growth inhibition of human UACC-257 cells incubated for 48 hrs by sulforhodamine B assay
[4] = system: MDA-MB-231; test: Growth inhibition of human MDA-MB-231 cells assessed as cell growth at 1 uM incubated for 48 hrs by sulforhodamine B assay relative to control; conditions: read-out: Activity
[5] = system: SK-OV-3; test: Growth inhibition of human SK-OV-3 cells assessed as cell growth at 100 uM incubated for 48 hrs by sulforhodamine B assay relative to control; conditions: read-out: Activity
[6] = system: TK-10; test: Growth inhibition of human TK-10 cells assessed as cell growth at 0.01 uM incubated for 48 hrs by sulforhodamine B assay relative to control; conditions: read-out: Activity
[7] = system: Malme-3M; test: Growth inhibition of human Malme-3M cells incubated for 48 hrs by sulforhodamine B assay
[8] = system: HCT-15; test: Growth inhibition of human HCT-15 cells assessed as cell growth at 0.01 uM incubated for 48 hrs by sulforhodamine B assay relative to control; conditions: read-out: Activity
[9] = system: NCI-H460; test: Growth inhibition of human NCI-H460 cells assessed as cell growth at 1 uM incubated for 48 hrs by sulforhodamine B assay relative to control; conditions: read-out: Activity
[10] = system: Hs-578T; test: Growth inhibition of human Hs-578T cells assessed as cell growth at 100 uM incubated for 48 hrs by sulforhodamine B assay relative to control; conditions: read-out: Activity
[11] = system: OVCAR-8; test: Growth inhibition of human OVCAR-8 cells incubated for 48 hrs by sulforhodamine B assay
[12] = system: NCI-H23; test: Growth inhibition of human NCI-H23 cells assessed as cell growth at 100 uM incubated for 48 hrs by sulforhodamine B assay relative to control; conditions: read-out: Activity
[13] = system: MDA-MB-231; test: Growth inhibition of human MDA-MB-231 cells assessed as cell growth at 0.01 uM incubated for 48 hrs by sulforhodamine B assay relative to control; conditions: read-out: Activity
[14] = system: K562; test: Growth inhibition of human K562 cells assessed as cell growth at 100 uM incubated for 48 hrs by sulforhodamine B assay relative to control; conditions: read-out: Activity
[15] = system: COLO 205; test: Growth inhibition of human COLO 205 cells assessed as cell growth at 1 uM incubated for 48 hrs by sulforhodamine B assay relative to control; conditions: read-out: Activity
[16] = system: CCRF-CEM; test: Growth inhibition of human CCRF-CEM cells assessed as cell growth at 100 uM incubated for 48 hrs by sulforhodamine B assay relative to control; conditions: read-out: Activity
[17] = system: BT-549; test: Growth inhibition of human BT-549 cells assessed as cell growth at 100 uM incubated for 48 hrs by sulforhodamine B assay relative to control; conditions: read-out: Activity
[18] = system: NCI-H522; test: Growth inhibition of human NCI-H522 cells assessed as cell growth at 0.01 uM incubated for 48 hrs by sulforhodamine B assay relative to control; conditions: read-out: Activity
[19] = system: K562; test: Growth inhibition of human K562 cells incubated for 48 hrs by sulforhodamine B assay
[20] = system: NCI/ADR-RES; test: Growth inhibition of human NCI/ADR-RES cells assessed as cell growth at 1 uM incubated for 48 hrs by sulforhodamine B assay relative to control; conditions: read-out: Activity
[21] = system: OVCAR-3; test: Growth inhibition of human OVCAR-3 cells assessed as cell growth at 0.01 uM incubated for 48 hrs by sulforhodamine B assay relative to control; conditions: read-out: Activity
[22] = system: PC-3; test: Growth inhibition of human PC-3 cells incubated for 48 hrs by sulforhodamine B assay
[23] = system: U-251; test: Growth inhibition of human U-251 cells assessed as cell growth at 0.1 uM incubated for 48 hrs by sulforhodamine B assay relative to control; conditions: read-out: Activity
[24] = system: SF-539; test: Growth inhibition of human SF-539 cells assessed as cell growth at 0.01 uM incubated for 48 hrs by sulforhodamine B assay relative to control; conditions: read-out: Activity
[25] = system: OVCAR-4; test: Growth inhibition of human OVCAR-4 cells assessed as cell growth at 100 uM incubated for 48 hrs by sulforhodamine B assay relative to control; conditions: read-out: Activity
[26] = system: MDA-MB-435; test: Growth inhibition of human MDA-MB-435 cells assessed as cell growth at 1 uM incubated for 48 hrs by sulforhodamine B assay relative to control; conditions: read-out: Activity
[27] = system: 786-0; test: Growth inhibition of human 786-0 cells incubated for 48 hrs by sulforhodamine B assay
[28] = system: MCF7; test: Growth inhibition of human MCF7 cells assessed as cell growth at 100 uM incubated for 48 hrs by sulforhodamine B assay relative to control; conditions: read-out: Activity
[29] = system: SW-620; test: Growth inhibition of human SW-620 cells assessed as cell growth at 1 uM incubated for 48 hrs by sulforhodamine B assay relative to control; conditions: read-out: Activity
[30] = system: Hs-578T; test: Growth inhibition of human Hs-578T cells assessed as cell growth at 0.01 uM incubated for 48 hrs by sulforhodamine B assay relative to control; conditions: read-out: Activity
[31] = system: MOLT-4; test: Growth inhibition of human MOLT-4 cells assessed as cell growth at 0.1 uM incubated for 48 hrs by sulforhodamine B assay relative to control; conditions: read-out: Activity
[32] = system: COLO 205; test: Growth inhibition of human COLO 205 cells assessed as cell growth at 0.1 uM incubated for 48 hrs by sulforhodamine B assay relative to control; conditions: read-out: Activity
[33] = system: HT-29; test: Growth inhibition of human HT-29 cells assessed as cell growth at 0.1 uM incubated for 48 hrs by sulforhodamine B assay relative to control; conditions: read-out: Activity
[34] = system: SK-MEL-2; test: Growth inhibition of human SK-MEL-2 cells incubated for 48 hrs by sulforhodamine B assay
[35] = read-out: LC50 (the source's name)
[36] = read-out: pLC50 (the source's name) (converted)

In the case of CC(=O)Nc1cc(CO[Si](C)(C)C(C)(C)C)cc(NC(=O)c2ccc(C(=O)Nc3cccc(NC(=O)CCCN(C)C)c3)cc2)c1, the growth at 0.1 µM [1] is reported as 91%, the growth at 1 µM [2] is reported as 98% and the GI50 ([3]; read-out: GI50) is reported as greater than 75 µM. It also gave an LC50 ([3]; read-out: LC50) greater than 75 µM, a TGI ([3]; read-out: TGI) greater than 75 µM and a GI50 ([3]; read-out: pGI50 (converted)) greater than 75.9 µM. The LC50 ([3]; read-out: pLC50 (converted)) was greater than 75.9 µM, the TGI ([3]; read-out: pTGI) was greater than 75.9 µM and the growth at 1 µM [4] was 106%. For the same compound, the growth at 100 µM [5] was 93%, the growth at 0.01 µM [6] was 96% and the GI50 ([7]; read-out: GI50) was 36.3 µM. The LC50 (concentration killing 50% of cells) ([7]; read-out: LC50) was greater than 75 µM, the TGI ([7]; read-out: TGI) was greater than 75 µM and the GI50 ([7]; read-out: pGI50 (converted)) was 36.3 µM. It also gave an LC50 (concentration killing 50% of cells) ([7]; read-out: pLC50 (converted)) greater than 75.9 µM, a TGI ([7]; read-out: pTGI) greater than 75.9 µM and a growth at 0.01 µM [8] of 93%. The growth at 1 µM [9] was 99%, the growth at 100 µM [10] was 89% and the GI50 ([11]; read-out: GI50) was greater than 75 µM. The CC50 [11, 35] was greater than 75 µM, the TGI ([11]; read-out: TGI) was greater than 75 µM and the GI50 ([11]; read-out: pGI50 (converted)) was greater than 75.9 µM. The CC50 [11, 36] was greater than 75.9 µM, the TGI ([11]; read-out: pTGI) was greater than 75.9 µM and the growth at 100 µM [12] was 84%. The growth at 0.01 µM [13] was 102%, the growth at 100 µM [14] was 94% and the growth at 1 µM [15] was 109%. It also gave a growth at 100 µM [16] of 112%, a growth at 100 µM [17] of 86% and a growth at 0.01 µM [18] of 89%. For the same compound, the GI50 ([19]; read-out: GI50) was greater than 75 µM, the CC50 [19, 35] was greater than 75 µM and the TGI ([19]; read-out: TGI) was greater than 75 µM. It also gave a GI50 ([19]; read-out: pGI50 (converted)) greater than 75.9 µM, a CC50 [19, 36] greater than 75.9 µM and a TGI ([19]; read-out: pTGI) greater than 75.9 µM. It also gave a growth at 1 µM [20] of 97%, a growth at 0.01 µM [21] of 100% and a GI50 ([22]; read-out: GI50) greater than 75 µM. It also gave a CC50 [22, 35] greater than 75 µM, a TGI ([22]; read-out: TGI) greater than 75 µM and a GI50 ([22]; read-out: pGI50 (converted)) greater than 75.9 µM. It also gave a CC50 [22, 36] greater than 75.9 µM, a TGI ([22]; read-out: pTGI) greater than 75.9 µM and a growth at 0.1 µM [23] of 100%. For the same compound, the growth at 0.01 µM [24] was 95%, the growth at 100 µM [25] was 78% and the growth at 1 µM [26] was 94%. The GI50 ([27]; read-out: GI50) was greater than 75 µM, the LC50 ([27]; read-out: LC50) was greater than 75 µM and the TGI ([27]; read-out: TGI) was greater than 75 µM. It also gave a GI50 ([27]; read-out: pGI50 (converted)) greater than 75.9 µM, an LC50 ([27]; read-out: pLC50 (converted)) greater than 75.9 µM and a TGI ([27]; read-out: pTGI) greater than 75.9 µM. For the same compound, the growth at 100 µM [28] was 32%, the growth at 1 µM [29] was 100% and the growth at 0.01 µM [30] was 99%. For the same compound, the growth at 0.1 µM [31] was 91%, the growth at 0.1 µM [32] was 100% and the growth at 0.1 µM [33] was 103%. It also gave a GI50 ([34]; read-out: GI50) greater than 75 µM, a CC50 [34, 35] greater than 75 µM and a TGI ([34]; read-out: TGI) greater than 75 µM. For the same compound, the GI50 ([34]; read-out: pGI50 (converted)) was greater than 75.9 µM, the CC50 [34, 36] was greater than 75.9 µM and the TGI ([34]; read-out: pTGI) was greater than 75.9 µM.
